Results taken from ChEMBL document CHEMBL1156463, “Survivin down-regulation plays a crucial role in 3-hydroxy-3-methylglutaryl coenzyme A reductase inhibitor-induced apoptosis in cancer” (J Biol Chem, 2007).
Each block holds one compound with its values, some of them ahead of it. Calls of active or inactive are those of the source. No cut-off for these calls is given here.

What was measured:
SW480 [1] = experiment: Decrease in survivin expression in human SW480 cells at 20 uM after 24 hrs by immunoblot analysis; assay type: functional, cell-based
SW480 [2] = experiment: Decrease in survivin mRNA expression in human SW480 cells at 20 uM after 48 hrs by RT-PCR technique; assay type: functional
SW480 [3] = experiment: Decrease in isoprenylated Ras level in human SW480 cells at 20 uM after 48 hrs by immunoblot analysis; assay type: functional, cell-based
SW480 [4] = experiment: Decrease in survivin expression in human SW480 cells at 20 uM after 48 hrs by immunoblot analysis; assay type: functional, cell-based
SW480 [5] = experiment: Effect on Bax expression in human SW480 cells; assay type: functional, cell-based
SW480 [6] = experiment: Induction of cell cycle arrest in human SW480 cells by accumulation at G0/G1 phase at 20 uM after 48 hrs by flow cytometry; assay type: functional, cell-based
SW480 [7] = experiment: Growth inhibition of human SW480 cells after 96 hrs by MTS assay; assay type: functional, cell-based; conditions: SW480, 96 h
SW480 [8] = experiment: Reversal of reduction in survivin expression in human SW480 cells at 20 uM after 48 hrs by immunoblot analysis in presence of 100 uM mevalonate; assay type: functional, cell-based
SW480 [9] = experiment: Reversal of growth inhibition of human SW480 cells at 20 uM after 48 hrs by […] in presence of geranylgeranyl pyrophosphate; assay type: functional, cell-based
SW480 [10] = experiment: Reversal of growth inhibition of human SW480 cells at 20 uM after 48 hrs by […] in presence of farnesyl pyrophosphate; assay type: functional, cell-based
LS180 [11] = experiment: Blockade of growth inhibition of human LS180 cells after 72 hrs by MTS method; assay type: functional, cell-based
LS180 [12] = experiment: Inhibition of survivin expression in survivin gene transfected human LS180 cells at 20 uM immunoblot analysis; assay type: functional, cell-based
SW480 [13] = experiment: Induction of cell cycle arrest in human SW480 cells by accumulation at S phase at 20 uM after 48 hrs by flow cytometry; assay type: functional, cell-based
SW480 [14] = experiment: Reversal of growth inhibition of human SW480 cells at 20 uM after 48 hrs by […] in presence of squalene; assay type: functional, cell-based
SW480 [15] = experiment: Reversal of decrease in isoprenylated Ras level in human SW480 cells at 20 uM after 48 hrs by immunoblot analysis in presence of farnesyl pyrophosphate; assay type: functional, cell-based
SW480 [16] = experiment: Reversal of growth inhibition of human SW480 cells at 20 uM after 48 hrs by MTS assay in presence of >50 uM mevalonate; assay type: functional, cell-based
SW480 [17] = experiment: Induction of cell cycle arrest in human SW480 cells by accumulation at G2/M phase at 20 uM after 48 hrs by flow cytometry; assay type: functional, cell-based
[18] = molecular target: RAC-alpha serine/threonine-protein kinase (Homo sapiens) (UniProt P31749); experiment: Inhibition of FBS-stimulated increase in Akt phosphorylation in human SW480 cells at 20 uM by immunoblot analysis; assay type: cell-based
SW480 [19] = experiment: Reversal of reduction in survivin mRNA expression in human SW480 cells at 20 uM after 48 hrs by RT-PCR technique in presence of 100 uM mevalonate; assay type: functional, cell-based
SW480 [20] = experiment: Inhibition of FBS-stimulated increase in Ras protein expression in human SW480 cells assessed as GTP-bound protein at 20 uM by immunoblot analysis; assay type: functional, cell-based
SW480 [21] = experiment: Reversal of decrease in isoprenylated Ras level in human SW480 cells at 20 uM after 48 hrs by immunoblot analysis in presence of squalene; assay type: functional, cell-based
SW480 [22] = experiment: Reversal of decrease in isoprenylated Ras level in human SW480 cells at 20 uM after 48 hrs by immunoblot analysis in presence of mevalonate; assay type: functional, cell-based
LS180 [23] = experiment: Blockade of growth inhibition of survivin gene transfected human LS180 cells after 72 hrs by MTS method; assay type: functional, cell-based
HT-29 = experiment: Growth inhibition of human HT29 cells after 96 hrs by MTS assay; assay type: functional, cell-based; conditions: HT-29, 96 h
[24] = Growth inhibition of human LS180 cells after 96 hrs by MTS assay; assay type: functional, cell-based; conditions: LS180, 96 h
SW480 [25] = experiment: Induction of apoptosis in human SW480 cells assessed as increase in hypodiploid DNA content at 20 uM after 48 hrs by flow cytometry relative to control; assay type: functional
SW480 [26] = experiment: Reversal of decrease in isoprenylated Ras level in human SW480 cells at 20 uM after 48 hrs by immunoblot analysis in presence of geranylgeranyl pyrophosphate; assay type: functional, cell-based
SW480 [27] = experiment: Reversal of inhibition of FBS-stimulated increase in Ras protein expression in human SW480 cells assessed as GTP-bound protein at 20 uM by immunoblot analysis; assay type: functional, cell-based
SW480 [28] = experiment: Induction of apoptosis in human SW480 cells at 20 uM after 48 hrs by annexin-V propidium iodide staining method; assay type: functional
LS180 [29] = experiment: Inhibition of survivin expression in parent human LS180 cells at 20 uM by immunoblot analysis; assay type: functional, cell-based

Chain of RAC-alpha serine/threonine-protein kinase (Homo sapiens) (P31749 whole entry): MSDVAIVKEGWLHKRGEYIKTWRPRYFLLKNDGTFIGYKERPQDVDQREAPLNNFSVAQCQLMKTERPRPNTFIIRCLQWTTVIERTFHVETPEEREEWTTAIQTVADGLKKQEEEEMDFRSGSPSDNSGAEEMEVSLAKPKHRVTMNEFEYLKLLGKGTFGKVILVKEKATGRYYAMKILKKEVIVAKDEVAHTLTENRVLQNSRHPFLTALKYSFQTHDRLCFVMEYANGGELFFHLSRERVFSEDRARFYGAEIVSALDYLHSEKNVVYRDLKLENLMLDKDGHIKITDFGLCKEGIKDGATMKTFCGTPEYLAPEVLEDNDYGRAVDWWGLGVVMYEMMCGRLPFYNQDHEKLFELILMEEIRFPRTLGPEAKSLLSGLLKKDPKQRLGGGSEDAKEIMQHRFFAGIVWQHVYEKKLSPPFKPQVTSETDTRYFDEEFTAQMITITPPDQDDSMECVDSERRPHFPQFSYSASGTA

Compound: O=c1cc(N2CCOCC2)oc2c(-c3ccccc3)cccc12
Activity (SW480 [1]): Active

IC50 (SW480 [7]): 7.1 µM
Activity [18]: Active
IC50 (HT-29): 46.8 µM
Compound: CC[C@H](C)C(=O)O[C@H]1C[C@@H](C)C=C2C=C[C@H](C)[C@H](CC[C@@H]3C[C@@H](O)CC(=O)O3)[C@H]21 [LOVASTATIN]
Activity (SW480 [2]): 60%
Activity (SW480 [3]): Active
Activity (SW480 [4]): Active
Activity (SW480 [5]): inactive
Activity (SW480 [6]): inactive
Activity (SW480 [8]): Active
Activity (SW480 [9]): Active
Activity (SW480 [10]): Active
Activity (LS180 [11]): Active
Activity (LS180 [12]): Active
Activity (SW480 [13]): inactive
Activity (SW480 [14]): inactive
Activity (SW480 [15]): Active
Activity (SW480 [16]): Active
Activity (SW480 [17]): inactive
Activity (SW480 [19]): Active
Activity (SW480 [20]): Active
Activity (SW480 [21]): inactive
Activity (SW480 [22]): Active
Activity (LS180 [23]): Dose-dependent effect
IC50 [24]: 25.3 µM
Activity (SW480 [25]): 20.7%
Activity (SW480 [26]): Active
Activity (SW480 [27]): Active
Activity (SW480 [28]): 24.2%
Activity (LS180 [29]): Active
